Experiments:
Assay type in all cases: cell-based, human
[1] = system: CD34+ cells; test: Ex vivo expansion of CD34+ cell cultures, three weeks, CD34+ cells re-selected and enumerated; settings: 5 μM nicotine amide; cytokines SCF, TPO, FLt3, IL-6, IL-3; only cytokine treated cultures 35×10^4
Procedure: Sample collection and purification—Cells were obtained from umbilical cord blood (CB) after a normal full-term delivery (informed consent was given). Samples were collected and processed within 12 hours postpartum. Blood was mixed with 3% Gelatin (Sigma, St. Louis, Mo.) and let sedimented for 30 minutes to remove most red blood cells (RBC). The leukocyte-rich fraction was harvested and layered on Ficoll-Hypaque gradient (1.077 g/mL; Sigma), and centrifuged at 400 g for 30 minutes. […]
Purification of CDD133+ and CD34+ cells—To purify CDD133+ or CD34^+ cells, the mononuclear cell fraction was subjected to two cycles of immuno-magnetic separation using the “MiniMACS or Clinimax CD34 progenitor cell isolation kit” (Miltenyi Biotec, Aubun, Calif.) following the manufacturer's recommendations. The purity of the CD34^+ population obtained ranged from 95% to 98% as evaluated by flow cytometry (see below). […]
At weekly intervals, cell cultures were semi-depopulated and supplemented with fresh medium, serum and cytokines. At various time points, cells were harvested, counted following staining with trypan blue, and cell morphology was determined on cytospin (Shandon, UK)-prepared smears stained with May-Grunwald/Giemsa solutions. […]

[2] = system: CD34+ cells; test: FACS immunophenotyping of cultured/re-selected CD34+ cells for stem/early progenitor cells
Procedure: Immunophenotyping—For immuno-phenotyping, cells were harvested, washed with phosphate buffered saline (PBS), containing 1% BSA and 0.1% sodium azide, and stained by incubation (at 4° C. for 60 min) with phycoerythrin (PE)-conjugated anti CD38 (Immunoquality Products, The Netherlands), flourescein isothiocyanate (FITC)-conjugated anti CD34 (Miltenyi Biotec) both at 5 μl per 50 μl cell suspension. The cells were then washed with the same buffer and analyzed, using FACS-calibur flow cytometer (Becton-Dickinson, Immunofluorometry systems, Mountain View, Calif.). Cells were passed at a rate of about 1000 cells/second, using saline as the sheath fluid. A 488 nm argon laser beam served as the light source for excitation. Emission of ten thousand cells was measured using logarithmic amplification and calculated using the cellQuest software. Background noise was determined using isotype control stained cells. Arithmetic Mean Fluorescence Channel (MFC) of the negative and positive populations and the stained cells to noise (S/N) ratio were calculated.
The highly purified, re-selected CD34+ cell fraction from a three week culture was FACS analyzed for stem/early progenitor cells: CD34+CD38− (FIG. 3), CD34+Lin−(CD3, 4, 19, 38, 33, 14 and 15 minus, FIG. 4) as well as for the percentages of CD38-HLA-DR minus cells (FIG. 5). […] For example, at 5 uM nicotinamide the percentages of CD34+Lin− cells were 4.11 whereas in control cultures only 0.02%, the percentages of CD34+CD38− cells were 34.6 in nicotinamide cultures and only 0.67 in control.
The CD34+CD38− cells are shown in the upper left part of the plot. FIG. 6b, the cells were stained with CD34(PE) and Lin(38, 33, 4, 3, 15, 14, 19, 61) (FITC). The CD34+Lin− cells are shown in the upper left part of the plot. FIG. 6c, the cells were stained for 34PE and HLA-DR and CD38 FITC. The CD34+/CD38− HLA-DR− cells are shown in the upper left part of the plot.

[3] = system: CD34+ cells; test: Assay for Colony Forming Units (CFUc) in semi-solid medium; settings: 200 mM Splitomicin for first 3 weeks; week 5; colonies scored after 14 days
Procedure: Assay for Colony Forming Units (CFU)—Cells were cloned in semi-solid, methylcellulose-containing medium supplemented with 2 IU/mL erythropoietin (Eprex, Cilag AG Int., Switzerland), stem cell factor and IL-3, both at 20 ng/mL, G-CSF and GM-CSF, both at 10 ng/mL (all from Perpo Tech). Cultures were incubated for 14 days at 37° C. in humidified atmosphere of 5% CO2 in air.
Cell culturing—Cell culturing was effected was described above. Specifically, cultures were initiated with a total of 1.2×10^5 CD34+ cells in cytokine-supplemented medium, with or without (control) […] Splitomicin. From week 3 and on all cultures were supplemented with cytokines only. On week 5 cells were enumerated, numbers of CFUc were determined and CD34+ cells were re-isolated from 10 ml cultures, counted and accumulative numbers per culture were calculated.

[4] = system: CD34+ cells; test: Two phase culture system: long-term expansion of CD34+ cell cultures (3-week treatment phase, then cytokines only); settings: 200 mM Splitomicin for first 3 weeks
Procedure: Two phase culture system—Purified CD34+ cells were cultured in culture bags (American Fluoroseal Co. Gaithersburg, Md., USA) at a concentration of 1×10^4 cells/ml in MEMα/10% FCS containing the following human recombinant cytokines: Thrombopoietin (TPO), interleukin-6 (IL-6), FLT-3 ligand and stem cell factor (SCF), each at a final concentration of 50 ng/ml (Perpo Tech, Inc., Rocky Hill, N.J., USA), with or without Nicotinamide or Sirtinol or Splitomicin and incubated at 37° C. in a humidified atmosphere of 5% CO2 in air. Until week 3, the cultures were topped weekly with the same volume of fresh medium, Nicotinamide or Sirtinol or Splitomicin and growth factors. From week three and up to the termination of the experiments the cultures were weekly demi-depopulated and supplemented with cytokines only. Cells were counted following staining with trypan blue. At various time points, harvested cells were used to assay the content of colony forming units in culture (CFUc), enumeration of CD34+ cells following re-selection and immunophenotype analysis. Cell morphology was determined on cytospin (Shandon). […] On week 5 cells were enumerated, numbers of CFUc were determined and CD34+ cells were re-isolated from 10 ml cultures, counted and accumulative numbers per culture were calculated.

NC(=O)c1cccnc1 [Nicotinamide, nicotinamide]
CD34+ cells re-selected after three week expansion [1]: 180×10^4
percentages of CD34+CD38− cells in re-selected CD34+ fraction ([2]; 5 uM nicotinamide, three week culture, control 0.67): 34.6%
percentages of CD34+Lin− cells in re-selected CD34+ fraction ([2]; 5 uM nicotinamide, three week culture, control cultures 0.02%): 4.11%

O=C1CCc2c(ccc3ccccc23)O1 [Splitomicin]
colony formation (CFU analysis), self-renewal potential [3]: increase in colony formation
increase in CD34+ cells ([4]; CD34+ cells re-isolated on week 5): about 30%
total cell expansion vs cytokine-only control ([4]; counted on week 5): more than 2 fold
CD34+/CD38− population shift in FACS dot plot ([2]; 75 mM splitomicin): remarkable up-left shift

Reference: patent US8187876B2, “Expansion of stem/progenitor cells by inhibition of enzymatic reactions catalyzed by the Sir2 family of enzymes” (Gamida Cell Ltd., priority 2004, dated 2012)
